Consider 1 compound from US11591288B2, “Compositions and methods for treating atherosclerotic cardiovascular disease” (GAVISH-GALILEE BIO APPLICATIONS LTD., priority 2017, dated 2023).

Test [1] addresses T1, human serum PON1 (Homo sapiens, UniProt P27169).
T1 construct: tissue Industries biologic (Bet-Haemk, Israel); host or cells: human serum
The test is described as follows: Human serum PON1 lactonase activity (dihydrocoumarin assay). Type of test: biochemical. To be noted: 4 h, 37° C., 1.8 units without lyso-DGTS. As for the experimental part:
200 μl of human serum diluted by 20 with phosphate-buffered saline (PBS) (PH=7.6) was incubated with lyso-DGTS at various concentrations (0, 1, 5, 10 and 50 μg/ml) for 4 h at 37° C. Then, 10 μl was taken to measure lactonase activity using the dihydrocoumarine assay.
The effect of lyso-DGTS on lactonase activity of human serum PON1 was examined. Human serum was diluted by 20 with PBS buffer and incubated with and without lyso-DGTS at concentrations of 1, 5, 10, and 50 μg/ml for 4 h at 37° C. Lactonase activity of the enzyme was measured using dihydrocoumarin assay. As shown in Example 1, lyso-DGTS increased human serum lactonase activity in a dose dependent manner up to 10 μg/ml, from 1.8 units without lyso-DGTS to 2.16, 2.82, 3.01, and 2.80 units at 1, 5, 10 and 50 μg/ml lyso-DGTS, respectively. The change at 1 μg/ml of lyso-DGTS was not statistically significant (FIG. 2).

The test system of test [2] is J774A.1 macrophages. In words: Ox-LDL-induced foam cell formation, Oil Red O staining. Type of test: cell-based, murine. On the procedure: J774A.1 macrophage cells were grown in RPMI 1640 media containing 10% FBS in cell culture flask till ˜90% confluence (37° C. incubator containing 5% CO2). The cells were incubated at 37° C. overnight under sterile conditions, approximately 1×10^5 J774.1 cells/well in a 96-well plate. Macrophage cells were incubated for an additional 24 h with lyso-DGTS (50 and 100 μg/ml), rePON1 (50 μg/ml), or rePON1 preincubated with different concentrations of lyso-DGTS (10, 20, 50 and 100 μg/ml). The cells were washed and ox-LDL (25 μg/ml in a RPMI medium) was added for another 24 h to yield foam cells. The cells were washed 3 times with PBS, following fixation with 4% formaldehyde for 10 min, the cells were stained with Oil Red O (0.35 mg/100 ml in 60% isopropanol; Sigma-Aldrich) for 15 min at 37° C. to evaluate the characteristic lipid accumulation in macrophage-derived foam cells. Foam cell formation was observed under microscope.
The density of lipid content was evaluated by alcohol extraction after staining. The absorbance at 514 nm was measured using microplate reader (Infinite M200 PRO fluorescence spectrophotometer (Tecan)).
Macrophages uptake of ox-LDL, forming foam cell, is the hallmark of atherogenesis. The ability of lyso-DGTS or rePON1 incubated with lyso-DGTS to attenuate foam cell formation was examined. […]

The subject of test [3] is HDL. The test is described as follows: HDL-lyso-DGTS interaction, Trp fluorescence quenching. The format is binding, human. On the procedure: FIGS. 10A-10B show tryptophan fluorescence spectra of HDL (0.03 mg/ml) incubated with/without lyso-DGTS at various concentrations (1, 5, 10, 25, 50, 75, and 100 μg/ml) in black 96-well plates for 4 h at 37° C. (10A) or 25° C. (10B). The fluorescence was measured at excitation/emission 290/320-340 nm. The ability of lyso-DGTS to elevate HDL activity correlates with its binding affinity to HDL. Each experiment repeated separately at least three times.
HDL and LDL were isolated from human plasma samples by discontinuous density gradient ultracentrifugation and dialyzed against saline containing sodium ethylenediaminetetraacetic acid (EDTA; 1 mmol/L) to protect the lipoproteins against oxidation. Before generating the experiments, LDL and HDL were dialyzed twice, for 1 h each time, and once more overnight against PBS at 4° C. to remove EDTA.
In order to test whether the protective effect of lyso-DGTS on HDL occurs via specific interaction between lyso-DGTS and the lipoprotein, the HDL-lyso-DGTS interaction was investigated by the Trp-fluorescence-quenching method. […] (FIG. 10A) and 25° C. (FIG. 10B) in the 300-450 nm range with an excitation wavelength of 290 nm. Lyso-DGTS quenched HDL fluorescence in a dose-dependent manner at both temperatures.
Quenching pathways can be described by the Stem-Volmer equation (eq. 1 above). The Stern-Volmer curve was linear at the tested concentration of lyso-DGTS at both temperatures (with R>0.99 and p<0.0001). The Ksv values were (5.59±0.42)×10^3 M^−1 at 37° C. (FIG. 11A) and (4.83±0.59)×10^3 M^−1 at 25° C.
The binding constant and binding sites were calculated as shown for rePON1, using eq. 2 above. […] (FIG. 11D). The values obtained for n were not affected by temperature and were equal to 1 (Table 5). The thermodynamic parameters: enthalpy (ΔH), entropy (ΔS), and free energy (ΔG) were calculated to characterize the HDL-lyso-DGTS interaction type.

Test [4] deals with Human umbilical vein endothelial cells (HUVECs). The test is described as follows: HDL-induced endothelial NO release, DAN assay. The format is cell-based. To be noted: HDL 50 μg/ml preincubated 3 h with 10, 20, 50 μg/ml; HUVECs 2 h. As for the experimental part:
HUVECs were stimulated for 2 h with HDL (50 μg/ml) preincubated with DMSO, lyso-DGTS and S1P at final concentrations of 10, 20, and 50 μg/ml for 3 h. Media were then collected and treated with nitrate reductase followed by analysis using the DAN assay. Data are expressed as NO concentration (μM) released by the cells. Each experiment was repeated separately at least three times. *p<0.05, ***p<0.0001 related to the control (HDL without lyso-DGTS or S1P). Statistics were analyzed using one-way annova Graphpad prism 5 software.
Human umbilical vein endothelial cells (HUVECs) were incubated for 2 hours with HDL preincubated with different concentration of lyso-DGTS or S1P for 3 hours, and NO production determined using 2,3-diaminonapthalene (DAN) assay.

T1 sequence (P27169 whole entry): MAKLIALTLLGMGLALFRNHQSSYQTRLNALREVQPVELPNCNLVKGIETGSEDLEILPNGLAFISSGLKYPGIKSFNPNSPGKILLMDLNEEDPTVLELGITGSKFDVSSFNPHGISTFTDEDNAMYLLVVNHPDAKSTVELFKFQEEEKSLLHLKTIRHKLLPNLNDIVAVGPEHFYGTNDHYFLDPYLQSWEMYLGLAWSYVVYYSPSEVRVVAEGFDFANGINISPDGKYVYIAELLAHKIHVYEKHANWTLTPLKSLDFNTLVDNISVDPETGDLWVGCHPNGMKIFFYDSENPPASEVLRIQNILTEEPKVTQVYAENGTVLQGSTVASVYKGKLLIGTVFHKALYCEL

`CC/C=C\C/C=C\C/C=C\C/C=C\C/C=C\CCCC(=O)OCC(O)COCCC(C(=O)[O-])[N+](C)(C)C` (centres unmarked) [lyso-DGTS, lyso-diacylglyceryltrimethylhornmoserine]: the “human serum PON1 lactonase activity” value in test [1] (1 μg/ml lyso-DGTS, change not statistically significant) is reported as 2.16 units; in test [1] (5 μg/ml lyso-DGTS) it was 2.82 units; in test [1] (10 μg/ml lyso-DGTS), 3.01 units; in test [1] (50 μg/ml lyso-DGTS), 2.80 units. For the same compound, the “enhancement of rePON1 ability to inhibit foam cell formation” value in test [2] (100 μg/ml lyso-DGTS vs rePON1 alone, not significant) is given as roughly 10%. Further, the “reduction of oil red staining intensity” value in test [2] (lyso-DGTS (50 μg/ml) alone, then ox-LDL 25 μg/ml 24 h) is 32%. Besides, the “Stern-Volmer quenching constant Ksv, HDL” value in test [3] (25° C.) is “(4.83±0.59)×10^3 M^−1”; in test [3] (37° C.) it was “(5.59±0.42)×10^3 M^−1”. The “Binding constant Ka, lyso-DGTS-HDL” value in test [3] (298 K (25° C.)) came out at 3780 M⁻¹; in test [3] (310 K (37° C.)), 21650 M⁻¹. Further, the “effect on HDL ability to induce endothelial NO release” value in test [4] is on record as “significantly increased the HDL ability to induce endothelial NO release at a dose dependent manner”.
